By MIC is commonly meant the lowest concentration found to suppress growth. As a reminder, the GI50 is the concentration giving 50% growth inhibition.

Here are results for 7 compounds from patent US20250170127A1, “RE-SENSITIZING MULTIDRUG-RESISTANT (MDR) GRAM-NEGATIVE BACTERIA TO COLISTIN USING IONOPHORES” (The Regents of the University of Colorado, a body corporate, priority 2022, published 2025).

The test system of series [1] is E. coli AR-0493. The series is described as follows: MIC, CLSI broth microdilution, substance alone. The format is cell-based. On the procedure: A MDR E. coli strain AR-0493 (a.k.a., ATCC BAA-3170) was obtained from the CDC and FDA Antibiotic Resistance Bank and used for the initial screen. […] Considering the difficulties on the discovery of novel antimicrobial reagents against Gram-negative bacteria, we chose to screen the fragment-based library of 3,200 compounds from TimTec (Tampa, FL). […] The screen used a modified broth microdilution assay.
These 10 compounds were tested for their MICs and minimum re-sensitizing concentrations (MRCs) in the presence colistin at 2 μg/mL in E. coli AR-0493. […] To evaluate their toxicity in mammalian cells, the present inventors treated human epithelial adenocarcinoma HeLa cells with each compound at a wide range of concentrations. […]
(§1) General Methods. MDR strains E. coli AR-0493, AR-0346, and AR-0538, Salmonella Enteritidis AR-0496, Salmonella Typhimurium AR-0635, K. pneumoniae AR-0497, A. baumannii AR-0300 and AR-0310 were all obtained from the CDC & FDA Antibiotic Resistance Isolate Bank. E. coli K-12 was a gift from the Copley lab (Department of MCD Biology, University of Colorado Boulder). HeLa cells were purchased from the ATCC. All bacterial strains were grown on trypticase soy agar supplemented with 5% sheep blood (BAP). Bacteria were then cultured in Luria-Bertani (LB) medium at 35° C. until they achieve the log phase before screening or antimicrobial testing using CAMHB media. MIC, MRC, and checkerboard analyses and mammalian growth inhibition analyses in Hela cells were performed as described previously. More details are given in Supporting information.
In general terms: Dilution methods test growth across graded concentrations, often in twofold steps.

The test system of series [2] is mitochondria. The settings on record: previously reported; in vitro and in mice; cited from earlier work.
Series [3] has as its system HeLa cells. The experiment in a line: in vitro. It is filed as cell-based, human. On the procedure: These 10 compounds were tested for their MICs and minimum re-sensitizing concentrations (MRCs) in the presence colistin at 2 μg/mL in E. coli AR-0493. […] To evaluate their toxicity in mammalian cells, the present inventors treated human epithelial adenocarcinoma HeLa cells with each compound at a wide range of concentrations.
(§2) To evaluate the mammalian toxicity of these analogs, Applicants tested them in cell viability assay using human cervical adenocarcinoma HeLa cells. Their respective half maximal growth inhibition concentration (GI50) was calculated using KaleidaGraph. The selectivity index (SI) for each compound was also calculated as the ratio of their GI50 and MRC. […] Therefore, Applicants selected two bisanilino analogs, 7l and 7m, that bear chlorines at the meta- and para-positions, respectively, of the phenyl groups for further characterization studies. […]. […] Their mammalian toxicities were also evaluated, and SIs calculated. […] Applicants we next explored the scope of analogs 71 and 7m their colistin-potentiating activity in 8 different MDR Gram negative bacteria with diverse genetic backgrounds and resistance mechanisms (Table 7). All strains were obtained from CDC and FDA Antibiotic Resistance Bank. For example, E. coli AR-0493 and K. pneumoniae AR-0497 carry the plasmid that contains the most prevalent mcr-1 gene. E. coli AR-0538, Salmonella Typhimurium AR-0539 and AR-0635 contain the mcr-2, 3, and 4 genes, respectively. These genes encode the phosphoethanolamine transferase, which was originated form the chromosome of A. baumannii, such as AR-0310. […]. A. baumannii AR-0310 appears more sensitive to these two compounds and the MICs of colistin was reduced to 0.25 μg/mL.
as §1

Series [4] deals with E. coli AR-0493. The experiment in a line: Minimum re-sensitizing concentration (MRC) in the presence of colistin. The settings on record: in the presence of 2 μg/mL colistin, E. coli AR-0493. It is filed as cell-based. On the procedure:
These 10 compounds were tested for their MICs and minimum re-sensitizing concentrations (MRCs) in the presence colistin at 2 μg/mL in E. coli AR-0493.
The present inventors further conducted MRC screens of selected compounds from groups 2-5 in AR-0493. Compound were tested against AR-0493 with compound X+2 μg/mL Colistin.
All compounds were tested for their respective minimum resensitizing concentrations (MRCs) for colistin against E. coli. AR0493, a MDR strain from CDC and FDA Antibiotic Resistance Bank. […] For the symmetrical bisanilino series, 7a-p, electron-donating alkyl and alkoxy groups (entries 7a-g, Table 5) at various positions of the phenyl rings were investigated. […] Three asymmetric bisanilino analogs (7q-s, Table 5) were synthesized based on the SARs of the monoanilino analogs 8a-p (vide infra).
as §1

Series [5] deals with P. aeruginosa AR-0257. The experiment in a line: Colistin MIC in the absence or presence of RMA compound. It is filed as cell-based. The settings on record: for fold reduction of colistin MIC: 1 μg/mL of compound; for Colistin MIC (+ compound): in the presence of 1 μg/mL of compound indicated. On the procedure:
as §2

The subject of series [6] is P. aeruginosa AR-0239. The series is described as above. The format is cell-based. Conditions: for fold reduction of colistin MIC: 1 μg/mL of compound; for Colistin MIC (+ compound): in the presence of 1 μg/mL of compound indicated. The method, then:
as §2

For series [7], the system named is Salmonella Typhimurium AR-0539. The description is as above. The format is cell-based. The settings on record: for Colistin MIC (+ compound): in the presence of 1 μg/mL of compound indicated, S. Typhimurium AR-0539. On the procedure:
as §2

The test system of series [8] is E. coli K-12. Described as above. The format is cell-based. Conditions: colistin alone; wild-type E. coli K-12.
Source text: (§3) To investigate the scope of the colistin-potentiation effect of compound 3, the present inventors screened a panel of MDR Gram-negative bacteria obtained from the CDC and FDA Antibiotic Resistance Bank. These include a variety of Enterobacteriaceae spp., such as E. coli AR-0346 and AR-0538, K. pneumoniae AR-0497, Salmonella Enteritidis AR-0496, and Salmonella Typhimurium AR-0635. These strains all express the mcr genes (e.g., mcr-1, mcr-2, and mcr-4) and are resistant to colistin with its MICs of 8-16 μg/mL (Table 2). […] The only exception is Salmonella Typhimurium AR-0635, which expresses mcr-4 gene. […]. […]. Furthermore, the present inventors also tested the activity of colistin in the presence or absence of 1 μg/mL compound 3 in a wild-type E. coli K-12. […] The MICs of compound 3 in all these strains were >64 μg/mL, the highest concentration tested.
as §1

Series [9] concerns Salmonella Enteritidis AR-0496. Described as above. The format is cell-based. Conditions: colistin alone; Salmonella Enteritidis AR-0496, mcr-1.
Source text: as §3, §1

The subject of series [10] is E. coli AR-0346. The series is described as above. Conditions: colistin alone; E. coli AR-0346, mcr-1. It is filed as cell-based.
Source text: as §3, §1

In series [11] the test system is A. baumannii AR-0300. The series is described as above. It is filed as cell-based. The settings on record: colistin alone.
Source text: as §3, §1

The subject of series [12] is E. coli AR-0538. Described as above. It is filed as cell-based. Conditions: for Colistin MIC: colistin alone, E. coli AR-0538, mcr-2; for Colistin MIC (+ compound): in the presence of 1 μg/mL of compound indicated, E. coli AR-0538.
Source text: as §3, §2, §1

For series [13], the system named is E. coli AR-0493. The description is as above. The format is cell-based. Conditions: for Colistin MIC: colistin alone, E. coli AR-0493, mcr-1; for Colistin MIC (+ compound): in the presence of 1 μg/mL of compound indicated, E. coli AR-0493.
Source text: as §3, §2, §1

Series [14] concerns A. baumannii AR-0310. Described as above. It is filed as cell-based. Conditions: for Colistin MIC: colistin alone; for Colistin MIC (+ compound): in the presence of 1 μg/mL of compound indicated.
Source text: as §3, §2, §1

The test system of series [15] is K. pneumoniae AR-0497. Described as above. It is filed as cell-based. The settings on record: for Colistin MIC: colistin alone, K. pneumoniae AR-0497, mcr-1; for Colistin MIC (+ compound): in the presence of 1 μg/mL of compound indicated, K. pneumoniae AR-0497.
Source text: as §3, §2, §1

Series [16] has as its system Salmonella Typhimurium AR-0635. The description is as above. The format is cell-based. Conditions: for Colistin MIC: colistin alone; for Colistin MIC (+ compound): in the presence of 1 μg/mL of compound indicated, S. Typhimurium AR-0635.
Source text: as §3, §2, §1

Series [17] concerns P. aeruginosa AR-0768. The series is described as above. The format is cell-based. Conditions: colistin alone.
Source text: as §3

Series [18] concerns MDR Gram-negative bacteria. The series is described as follows: MICs across a panel of MDR Gram-negative bacteria (summary statements). It is filed as cell-based. Conditions: colistin alone.
Source text: as §3, §2, §1

The test system of series [19] is E. coli AR-0349. The experiment in a line: MICs of a panel of 9 antibiotics with and without compound 3. The format is cell-based.

Bounds are passed on as bounds.

Regarding `FC(F)(F)Oc1ccc(Nc2nc3nonc3nc2Nc2ccc(OC(F)(F)F)cc2)cc1` [Compound 7p], the MIC in series [1] is more than 64 µg/mL. In addition, in series [2], the mitochondrial uncoupler activity entry is “poor uncoupler”. Besides, the GI50 in series [3] worked out at 5.7 µg/mL. Moreover, the “MRC (minimum re-sensitizing concentration)” value (from here on “MRC”) in [4] (listed as 57p) was 0.25 µg/mL.
As for Colistin [reference compound], the MIC stood at 16 µg/mL in series [1] and 16 µg/mL in series [19] (antibiotic alone, multidrug-resistant E. coli). For the same compound, the “Colistin MIC” value in series [5] (colistin alone) came to 8 µg/mL; in series [6] (colistin alone) it was 4 µg/mL; in series [7] (colistin alone, S. Typhimurium AR-0539, mcr-3), 8 µg/mL; in series [8], 0.25 µg/mL; in series [9], 16 µg/mL; in series [10], 8 µg/mL. The “Colistin MIC” value in series [11] was found to be 8 µg/mL; in [12] (Table 2) it was 8 µg/mL; in series [12] (Table 7) it was 8 µg/mL; in series [13] (Table 2), 16 µg/mL; in series [13] (Table 7), 8 µg/mL; in series [14] (Table 2), 16 µg/mL. Further, the “Colistin MIC” value in series [14] (Table 7) turned out to be 32 µg/mL; in series [15] (Table 2), 8 µg/mL; in series [15] (Table 7) it was 8 µg/mL; in series [16] (S. Typhimurium AR-0635, mcr-4, Table 7) it was 32 µg/mL; in [16] (Salmonella Typhimurium AR-0635, mcr-4, Table 2), 16 µg/mL; in [17], 16 µg/mL. Further, the “Colistin MIC” value in series [18] (8 MDR Gram negative strains of Table 7) fell in the range of 4 to 32 µg/mL; in series [18] (mcr-expressing Enterobacteriaceae strains of Table 2), 8 to 16 µg/mL. In addition, the “INT (S-R interpretation)” value in series [19] (CLSI 2021, M100, Ed 31) is recorded as “R”. Moreover, the fold of potentiation in series [19] (by 1 μg/mL of compound 3) is 16 fold. The “MIC (+3)” value in series [19] (in the presence of 1 μg/mL of compound 3) was 1 µg/mL.
As for `Oc1nc2nonc2nc1Nc1ccc(OC(F)(F)F)cc1` [Compound 8p], the mitochondrial uncoupler activity result in series [2] is reported as “one of the most potent uncouplers”.
Take `FC(F)(F)Oc1cccc(Nc2nc3nonc3nc2Nc2cccc(OC(F)(F)F)c2)c1` [Compound 7o]: the MIC in [1] was more than 64 µg/mL. Further, the GI50 in series [3] amounted to 43 µg/mL. Further, the “MRC” value in series [4] and in series [4] (listed as 57o) was 0.25 µg/mL each time.
On to `Cc1ccc(Nc2nc3nonc3nc2Nc2ccc(C)cc2)cc1` [Compound 7d], for which, in series [1], the MIC was more than 64 µg/mL. Also, the GI50 in series [3] amounted to 1.1 µg/mL. In [4], the “MRC” value came out at 0.5 µg/mL.
For `Clc1ccc(Nc2nc3nonc3nc2Nc2ccc(Cl)cc2)cc1` [Compound 7m], the MIC in [1] was more than 64 µg/mL. In addition, the “fold reduction of colistin MIC” value in [5] and in series [6] was 4 folds each time. The “Colistin MIC (+ compound)” value came to 2 µg/mL in series [5]; 1 µg/mL in series [6]; 2 µg/mL in series [7]; 2 µg/mL in series [12]; 1 µg/mL in series [13]; 0.25 µg/mL in series [14]. The “Colistin MIC (+ compound)” value in series [15] and in [16] was 1 µg/mL in each case. In addition, in series [3], the GI50 came to 2.8 µg/mL. Further, the “MRC” value in [4] came out at 0.5 µg/mL.
As to `Clc1cccc(Nc2nc3nonc3nc2Nc2cccc(Cl)c2)c1` [Compound 7l], the MIC in series [1] was more than 64 µg/mL. The “fold reduction of colistin MIC” value in series [5] and in [6] was 4 folds each time. For the same compound, the “Colistin MIC (+ compound)” value stood at 2 µg/mL in series [5]; 1 µg/mL in [6]; 1 µg/mL in [7]; 1 µg/mL in series [12]; 1 µg/mL in series [13]; 0.25 µg/mL in series [14]. For the same compound, the “Colistin MIC (+ compound)” value in series [15] and in series [16] was 1 µg/mL each time. Moreover, the GI50 in [3] was found to be 1.1 µg/mL. In addition, the “MRC” value in series [4] was 0.25 µg/mL.
